These results are taken from ChEMBL document CHEMBL1145498, “A systematic interaction map of validated kinase inhibitors with Ser/Thr kinases” (Proc Natl Acad Sci U S A, 2007).

The ΔTm is the shift of the melting midpoint relative to a reference.

Assay [1] has as its target Serine/threonine-protein kinase pim-1 (Homo sapiens) (UniProt P11309).
Assay [2] concerns the target Calcium/calmodulin-dependent protein kinase type 1D (Homo sapiens) (UniProt Q8IU85).
In assay [3] the target is Serine/threonine-protein kinase Chk2 (Homo sapiens, UniProt O96017).
For assay [4], the target named is Serine/threonine-protein kinase pim-2 (Homo sapiens, UniProt Q9P1W9).
The target in assay [5] is Serine/threonine-protein kinase 26 (Homo sapiens) (UniProt Q9P289).
Assay [6] addresses Serine/threonine-protein kinase 10 (Homo sapiens) (UniProt O94804).
The target of assay [7] is Serine/threonine-protein kinase 38 (Homo sapiens) (UniProt Q15208).
In assay [8] the target is Calcium/calmodulin-dependent protein kinase type II subunit gamma (Homo sapiens) (UniProt Q13555).
The target in assay [9] is Dual specificity mitogen-activated protein kinase kinase 2 (Homo sapiens, UniProt P36507).
The target in assay [10] is T1, Serine/threonine-protein kinase Nek2 (Homo sapiens) (UniProt P51955).
T1 sequence (whole entry): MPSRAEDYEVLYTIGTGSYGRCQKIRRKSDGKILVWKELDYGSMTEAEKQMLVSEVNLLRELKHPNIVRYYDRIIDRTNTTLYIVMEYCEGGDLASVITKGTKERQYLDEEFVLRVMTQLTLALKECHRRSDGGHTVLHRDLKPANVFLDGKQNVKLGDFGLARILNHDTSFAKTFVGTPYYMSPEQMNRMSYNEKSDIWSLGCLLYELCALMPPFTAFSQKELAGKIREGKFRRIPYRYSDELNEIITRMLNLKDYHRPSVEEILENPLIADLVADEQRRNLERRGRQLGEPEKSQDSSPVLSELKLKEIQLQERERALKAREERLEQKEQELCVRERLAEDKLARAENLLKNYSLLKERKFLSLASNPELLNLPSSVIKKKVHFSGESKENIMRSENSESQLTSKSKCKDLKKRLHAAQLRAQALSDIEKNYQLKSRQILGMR

In assay [11] the target is Cyclin-dependent kinase 2 (Homo sapiens, UniProt P24941).
Assay [12] deals with T2, Serine/threonine-protein kinase VRK3 (Homo sapiens) (UniProt Q8IV63).
T2 sequence (whole entry): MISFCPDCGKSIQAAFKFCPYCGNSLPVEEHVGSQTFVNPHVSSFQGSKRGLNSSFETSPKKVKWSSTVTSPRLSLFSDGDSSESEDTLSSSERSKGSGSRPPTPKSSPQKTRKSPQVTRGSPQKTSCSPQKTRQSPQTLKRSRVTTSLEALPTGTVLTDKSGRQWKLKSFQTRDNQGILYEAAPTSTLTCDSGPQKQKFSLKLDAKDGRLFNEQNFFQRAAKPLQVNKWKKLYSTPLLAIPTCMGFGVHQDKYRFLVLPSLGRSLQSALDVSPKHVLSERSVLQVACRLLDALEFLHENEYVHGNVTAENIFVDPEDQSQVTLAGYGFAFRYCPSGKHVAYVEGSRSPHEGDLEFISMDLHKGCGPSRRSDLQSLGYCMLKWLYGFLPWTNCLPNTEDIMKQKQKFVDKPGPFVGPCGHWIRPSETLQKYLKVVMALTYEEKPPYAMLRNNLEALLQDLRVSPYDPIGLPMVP

Assay [13] has as its target T3, Calcium/calmodulin-dependent protein kinase type IV (Homo sapiens) (UniProt Q16566).
T3 sequence (whole entry): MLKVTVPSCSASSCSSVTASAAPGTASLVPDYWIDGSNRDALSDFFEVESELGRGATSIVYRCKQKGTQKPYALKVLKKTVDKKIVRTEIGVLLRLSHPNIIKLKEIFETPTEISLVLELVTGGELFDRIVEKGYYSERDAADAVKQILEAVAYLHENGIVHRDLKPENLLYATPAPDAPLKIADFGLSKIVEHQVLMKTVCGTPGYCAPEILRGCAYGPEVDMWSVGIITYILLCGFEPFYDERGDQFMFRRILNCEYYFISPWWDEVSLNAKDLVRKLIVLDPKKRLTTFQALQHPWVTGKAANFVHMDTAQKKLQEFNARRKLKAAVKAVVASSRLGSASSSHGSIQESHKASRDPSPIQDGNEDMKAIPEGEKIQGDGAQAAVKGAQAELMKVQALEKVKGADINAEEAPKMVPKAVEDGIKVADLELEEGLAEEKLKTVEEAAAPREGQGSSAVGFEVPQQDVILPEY

Assay [14] addresses STE20-like serine/threonine-protein kinase (Homo sapiens) (UniProt Q9H2G2).
Assay [15] deals with Mitogen-activated protein kinase 11 (Homo sapiens, UniProt Q15759).
The target of assay [16] is Serine/threonine-protein kinase RIO2 (Homo sapiens) (UniProt Q9BVS4).
Assay [17] deals with Serine/threonine-protein kinase PAK 6 (Homo sapiens) (UniProt Q9NQU5).
The target of assay [18] is TRAF2 and NCK-interacting protein kinase (Homo sapiens) (UniProt Q9UKE5).
The target in assay [19] is Mitogen-activated protein kinase 3 (Homo sapiens, UniProt P27361).
Assay [20] addresses T4, Serine/threonine-protein kinase 4 (Homo sapiens) (UniProt Q13043).
T4 sequence (whole entry): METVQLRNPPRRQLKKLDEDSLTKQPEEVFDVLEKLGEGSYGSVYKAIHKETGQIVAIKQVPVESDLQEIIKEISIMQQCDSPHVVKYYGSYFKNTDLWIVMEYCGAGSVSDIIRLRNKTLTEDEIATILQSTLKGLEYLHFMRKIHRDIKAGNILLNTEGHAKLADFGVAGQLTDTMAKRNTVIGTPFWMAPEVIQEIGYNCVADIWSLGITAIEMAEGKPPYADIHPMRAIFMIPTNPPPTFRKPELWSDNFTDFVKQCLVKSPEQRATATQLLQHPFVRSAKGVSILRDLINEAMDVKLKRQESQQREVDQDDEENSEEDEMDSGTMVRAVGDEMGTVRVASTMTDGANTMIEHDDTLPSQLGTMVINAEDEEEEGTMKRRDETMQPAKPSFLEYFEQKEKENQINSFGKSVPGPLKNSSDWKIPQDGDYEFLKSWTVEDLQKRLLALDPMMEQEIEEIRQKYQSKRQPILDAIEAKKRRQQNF

Serine/threonine-protein kinase 10 (Homo sapiens), sequence (O94804 whole entry, looked up): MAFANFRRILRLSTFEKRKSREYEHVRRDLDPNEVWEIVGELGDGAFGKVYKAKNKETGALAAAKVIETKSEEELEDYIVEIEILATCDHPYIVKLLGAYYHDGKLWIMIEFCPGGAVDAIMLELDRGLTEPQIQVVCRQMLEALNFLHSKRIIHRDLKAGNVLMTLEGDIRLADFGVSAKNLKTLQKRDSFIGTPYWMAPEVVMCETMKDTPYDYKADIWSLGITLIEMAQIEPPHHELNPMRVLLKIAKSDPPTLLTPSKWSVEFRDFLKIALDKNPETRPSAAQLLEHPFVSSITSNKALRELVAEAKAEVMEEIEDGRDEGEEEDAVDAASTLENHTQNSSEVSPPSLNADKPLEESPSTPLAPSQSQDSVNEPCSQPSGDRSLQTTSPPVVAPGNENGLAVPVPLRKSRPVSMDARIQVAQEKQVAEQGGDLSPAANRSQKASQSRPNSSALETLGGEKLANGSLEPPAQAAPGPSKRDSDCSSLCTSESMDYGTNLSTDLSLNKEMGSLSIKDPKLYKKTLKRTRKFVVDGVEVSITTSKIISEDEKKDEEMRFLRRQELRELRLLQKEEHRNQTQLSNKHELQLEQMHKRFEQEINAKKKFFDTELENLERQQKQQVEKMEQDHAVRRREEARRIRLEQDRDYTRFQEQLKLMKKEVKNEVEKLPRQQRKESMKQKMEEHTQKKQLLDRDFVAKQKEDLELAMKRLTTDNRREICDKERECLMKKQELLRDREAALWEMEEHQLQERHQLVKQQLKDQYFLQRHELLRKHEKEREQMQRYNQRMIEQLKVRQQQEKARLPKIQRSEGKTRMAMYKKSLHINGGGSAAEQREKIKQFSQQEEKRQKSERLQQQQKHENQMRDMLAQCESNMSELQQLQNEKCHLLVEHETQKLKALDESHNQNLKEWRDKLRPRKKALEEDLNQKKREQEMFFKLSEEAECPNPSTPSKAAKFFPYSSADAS
Dual specificity mitogen-activated protein kinase kinase 2, sequence (P36507 whole entry): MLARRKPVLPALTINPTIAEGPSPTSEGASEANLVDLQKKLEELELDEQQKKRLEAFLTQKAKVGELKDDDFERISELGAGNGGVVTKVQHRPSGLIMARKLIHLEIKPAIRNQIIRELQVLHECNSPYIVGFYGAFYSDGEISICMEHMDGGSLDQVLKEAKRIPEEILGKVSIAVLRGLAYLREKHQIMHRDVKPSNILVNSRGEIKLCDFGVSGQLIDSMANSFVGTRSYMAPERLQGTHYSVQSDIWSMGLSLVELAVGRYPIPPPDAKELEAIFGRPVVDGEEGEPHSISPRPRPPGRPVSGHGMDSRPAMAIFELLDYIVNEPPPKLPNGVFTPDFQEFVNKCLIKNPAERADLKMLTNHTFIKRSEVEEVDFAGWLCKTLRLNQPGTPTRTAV
STE20-like serine/threonine-protein kinase (Homo sapiens), sequence (Q9H2G2 whole entry, looked up): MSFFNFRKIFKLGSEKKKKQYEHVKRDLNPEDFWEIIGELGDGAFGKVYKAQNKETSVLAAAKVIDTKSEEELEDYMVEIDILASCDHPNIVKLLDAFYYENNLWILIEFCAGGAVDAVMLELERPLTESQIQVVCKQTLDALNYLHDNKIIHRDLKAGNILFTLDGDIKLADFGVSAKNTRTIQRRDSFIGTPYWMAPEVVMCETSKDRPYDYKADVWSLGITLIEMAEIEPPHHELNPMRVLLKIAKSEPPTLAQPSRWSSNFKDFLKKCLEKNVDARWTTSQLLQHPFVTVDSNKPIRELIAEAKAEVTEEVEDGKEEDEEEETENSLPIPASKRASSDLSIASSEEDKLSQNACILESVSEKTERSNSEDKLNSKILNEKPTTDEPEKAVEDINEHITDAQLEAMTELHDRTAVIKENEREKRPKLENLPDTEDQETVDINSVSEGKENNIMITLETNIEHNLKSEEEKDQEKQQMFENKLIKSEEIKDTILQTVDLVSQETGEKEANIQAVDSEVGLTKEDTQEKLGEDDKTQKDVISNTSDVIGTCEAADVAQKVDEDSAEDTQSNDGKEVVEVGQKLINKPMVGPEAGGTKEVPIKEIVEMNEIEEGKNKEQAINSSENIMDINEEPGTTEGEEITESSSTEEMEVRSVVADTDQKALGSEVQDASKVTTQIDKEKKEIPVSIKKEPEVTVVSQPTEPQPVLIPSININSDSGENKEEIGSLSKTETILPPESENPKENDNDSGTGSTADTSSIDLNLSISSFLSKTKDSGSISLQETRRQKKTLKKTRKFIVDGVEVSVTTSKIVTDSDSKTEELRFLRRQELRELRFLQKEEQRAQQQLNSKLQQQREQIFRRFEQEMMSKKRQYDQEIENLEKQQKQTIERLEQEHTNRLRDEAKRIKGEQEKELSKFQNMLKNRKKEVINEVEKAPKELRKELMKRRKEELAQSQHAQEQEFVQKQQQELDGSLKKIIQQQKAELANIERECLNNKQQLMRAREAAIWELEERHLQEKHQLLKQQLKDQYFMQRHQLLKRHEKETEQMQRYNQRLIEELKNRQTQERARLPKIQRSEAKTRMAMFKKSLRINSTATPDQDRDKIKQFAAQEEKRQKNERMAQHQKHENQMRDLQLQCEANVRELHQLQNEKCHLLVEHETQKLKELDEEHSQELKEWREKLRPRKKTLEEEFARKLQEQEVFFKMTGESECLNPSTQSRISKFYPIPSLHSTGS
Calcium/calmodulin-dependent protein kinase type II subunit gamma (Homo sapiens), sequence (Q13555 whole entry): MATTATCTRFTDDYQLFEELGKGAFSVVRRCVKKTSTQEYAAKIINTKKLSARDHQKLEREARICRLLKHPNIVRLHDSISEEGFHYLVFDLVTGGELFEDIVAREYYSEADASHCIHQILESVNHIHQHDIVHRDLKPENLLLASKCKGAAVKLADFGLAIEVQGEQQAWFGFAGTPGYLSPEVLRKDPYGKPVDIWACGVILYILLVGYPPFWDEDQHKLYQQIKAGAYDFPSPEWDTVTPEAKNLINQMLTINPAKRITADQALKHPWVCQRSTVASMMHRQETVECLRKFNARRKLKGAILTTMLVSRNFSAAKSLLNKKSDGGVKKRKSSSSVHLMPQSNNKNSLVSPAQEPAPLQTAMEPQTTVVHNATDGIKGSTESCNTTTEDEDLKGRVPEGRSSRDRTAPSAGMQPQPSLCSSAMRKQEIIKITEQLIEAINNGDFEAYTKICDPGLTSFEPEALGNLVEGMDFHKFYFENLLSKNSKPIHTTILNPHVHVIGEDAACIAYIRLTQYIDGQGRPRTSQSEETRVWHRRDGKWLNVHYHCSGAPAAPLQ
Mitogen-activated protein kinase 11, sequence (Q15759 whole entry): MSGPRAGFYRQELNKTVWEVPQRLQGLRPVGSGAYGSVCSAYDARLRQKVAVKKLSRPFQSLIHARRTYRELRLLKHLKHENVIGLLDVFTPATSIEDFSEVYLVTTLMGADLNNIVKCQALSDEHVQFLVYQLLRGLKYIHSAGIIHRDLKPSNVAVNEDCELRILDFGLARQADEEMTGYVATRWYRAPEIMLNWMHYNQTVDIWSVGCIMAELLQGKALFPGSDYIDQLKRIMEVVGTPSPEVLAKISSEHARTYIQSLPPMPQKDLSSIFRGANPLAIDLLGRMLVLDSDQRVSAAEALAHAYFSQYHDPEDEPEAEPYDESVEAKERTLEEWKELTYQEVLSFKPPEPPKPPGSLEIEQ
TRAF2 and NCK-interacting protein kinase (Homo sapiens), sequence (Q9UKE5 whole entry, looked up): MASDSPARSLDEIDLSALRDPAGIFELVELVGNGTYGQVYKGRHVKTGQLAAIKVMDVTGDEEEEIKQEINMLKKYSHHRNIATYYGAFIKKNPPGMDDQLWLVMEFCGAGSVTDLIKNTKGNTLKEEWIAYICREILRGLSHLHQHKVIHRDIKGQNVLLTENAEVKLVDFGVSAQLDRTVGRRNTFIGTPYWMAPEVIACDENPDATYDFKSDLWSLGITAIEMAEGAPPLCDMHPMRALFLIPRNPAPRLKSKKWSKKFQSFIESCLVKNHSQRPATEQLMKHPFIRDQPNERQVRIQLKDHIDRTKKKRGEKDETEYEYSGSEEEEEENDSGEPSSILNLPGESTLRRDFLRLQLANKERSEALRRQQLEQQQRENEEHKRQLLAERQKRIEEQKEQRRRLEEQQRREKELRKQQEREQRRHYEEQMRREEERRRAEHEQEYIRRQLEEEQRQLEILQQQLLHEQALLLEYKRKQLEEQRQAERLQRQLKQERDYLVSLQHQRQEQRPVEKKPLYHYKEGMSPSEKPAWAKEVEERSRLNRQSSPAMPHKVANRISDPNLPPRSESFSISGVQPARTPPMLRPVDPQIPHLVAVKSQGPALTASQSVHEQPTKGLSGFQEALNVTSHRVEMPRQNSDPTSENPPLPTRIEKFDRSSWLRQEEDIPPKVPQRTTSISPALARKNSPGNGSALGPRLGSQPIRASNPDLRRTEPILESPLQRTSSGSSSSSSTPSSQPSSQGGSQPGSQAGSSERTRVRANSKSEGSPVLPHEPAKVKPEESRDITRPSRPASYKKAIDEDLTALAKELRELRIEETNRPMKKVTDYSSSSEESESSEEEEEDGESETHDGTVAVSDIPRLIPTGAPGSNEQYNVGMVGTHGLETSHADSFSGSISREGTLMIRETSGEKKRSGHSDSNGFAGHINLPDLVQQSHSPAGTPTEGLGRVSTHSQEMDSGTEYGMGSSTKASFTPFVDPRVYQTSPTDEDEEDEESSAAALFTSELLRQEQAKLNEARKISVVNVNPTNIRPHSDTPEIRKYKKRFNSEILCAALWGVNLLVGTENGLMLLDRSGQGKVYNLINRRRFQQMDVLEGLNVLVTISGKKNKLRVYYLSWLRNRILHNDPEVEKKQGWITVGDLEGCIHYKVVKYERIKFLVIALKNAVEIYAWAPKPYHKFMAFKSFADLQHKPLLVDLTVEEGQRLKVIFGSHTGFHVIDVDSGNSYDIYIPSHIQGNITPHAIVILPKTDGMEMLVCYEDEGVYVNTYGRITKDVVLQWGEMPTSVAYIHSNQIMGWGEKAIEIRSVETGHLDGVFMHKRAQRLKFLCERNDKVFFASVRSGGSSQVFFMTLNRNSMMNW

With `O=c1cc(N2CCOCC2)oc2c1ccc1ccccc12`, the ΔTm in assay [1] was 1.7 °C; in assay [2] it was 0 °C; in assay [3], -0.3 °C; in assay [4], 1 °C; in [5], 0.2 °C; in [6], 0.4 °C. In addition, the ΔTm turned out to be 0.1 °C in assay [7]; 0.2 °C in assay [8]; 0.1 °C in assay [9]; 0.6 °C in assay [10]; 0.5 °C in [11]; 1 °C in [12]. Also, the ΔTm was -0.1 °C in assay [13]; 0.2 °C in assay [14]; 1.1 °C in assay [15]; 0.4 °C in [16]; -0.3 °C in assay [17]; 0.3 °C in assay [18]. Also, the ΔTm in assay [19] and in assay [20] was 0.2 °C throughout.

On to `Oc1cc(O)cc(/C=C/c2ccc(O)c(O)c2)c1` [PICEATANNOL], for which the ΔTm in assay [1] is 3.2 °C; in [2] it was 1.1 °C; in [3] it was 1.9 °C; in [4] it was 2 °C; in assay [5], 1 °C; in assay [6], 0.6 °C. For the same compound, the shift in melting temperature (ΔTm) was 1.7 °C in [7]; 0.2 °C in assay [8]; 0.2 °C in assay [9]; 1.1 °C in assay [10]; 1.2 °C in assay [11]; -0.2 °C in assay [12]. The ΔTm in assay [13] was found to be 0.2 °C; in assay [14], 1.6 °C; in [15], 0.8 °C; in assay [16], 0.6 °C; in assay [17] it was 0.5 °C; in assay [18], 0.4 °C. Also, the figures for the ΔTm in assay [19] and in [20] were 0.2 °C and 0.3 °C, respectively.

In the case of `CC(C)n1cnc2/c(=N/c3cccc(Cl)c3)nc(NCCO)[nH]c21`, the ΔTm in [1] is -0.3 °C; in [2], 0.7 °C; in assay [3], 1.7 °C; in assay [4], 0.6 °C; in assay [5], 0.9 °C; in [6] it was 2 °C. Also, the thermal shift (ΔTm) in [7] amounted to 2.7 °C; in [8], 1.1 °C; in assay [9], 0.2 °C; in [10], 1.3 °C; in assay [11], 1.6 °C; in assay [12], 0.4 °C. The ΔTm was 1.2 °C in assay [13]; 1.6 °C in assay [14]; -0.1 °C in [15]; 1 °C in [16]; 3.8 °C in assay [17]; 3.1 °C in assay [18]. The ΔTm in assay [19] stood at 0.2 °C; in assay [20], 3.4 °C.

For `NCCNS(=O)(=O)c1cccc2c(Cl)cccc12`, the ΔTm in assay [1] was 2.9 °C; in [2] it was 0 °C; in [3], 0.2 °C; in assay [4] it was 1.7 °C; in [5] it was -0.1 °C; in assay [6], 0.8 °C. The ΔTm in assay [7] is -0.1 °C; in assay [8] it was 0.4 °C; in [9] it was -0.3 °C; in [10], 0.7 °C; in [11] it was 0.1 °C; in [12], 0.3 °C. Moreover, the ΔTm in assay [13] was -0.1 °C; in [14], 0.1 °C; in assay [15] it was -0.2 °C; in assay [16] it was 0.2 °C; in assay [17], 0.2 °C; in assay [18] it was 0 °C. For the same compound, the ΔTm turned out to be 0.1 °C in [19] and 0.4 °C in [20].

Take `C[C@@H]1C[C@H]2O[C@@H]2/C=C\C=C\C(=O)Cc2c(Cl)c(O)cc(O)c2C(=O)O1` [RADICICOL]: the ΔTm in [1] was -0.1 °C; in [2], 0 °C; in assay [3], 1.6 °C; in [4], 0.1 °C; in [5] it was 0.9 °C; in [6] it was -0.4 °C. Besides, the ΔTm in assay [7] was 0.3 °C; in assay [8] it was 0 °C; in assay [9], 0 °C; in assay [10] it was 0.2 °C; in assay [11] it was 0.5 °C; in assay [12] it was -0.4 °C. For the same compound, the ΔTm in assay [13] is -0.1 °C; in assay [14] it was 0.4 °C; in assay [15], 0.7 °C; in assay [16] it was -0.5 °C; in assay [17], 0.3 °C; in assay [18], -0.3 °C. Besides, the results for the ΔTm in [19] and in [20] were 0 °C and 0.3 °C, respectively.

Take `CN(C)c1ncnc2nc[nH]c12` [DIMETHYLADENINE]: the ΔTm in assay [1] is 0 °C; in assay [2], 0 °C; in assay [3] it was 0.5 °C; in assay [4], 0.3 °C; in assay [5], 0 °C; in [6], -0.4 °C. The ΔTm in [7] is 0.3 °C; in assay [8] it was 0 °C; in assay [9], -0.2 °C; in [10], 0.8 °C; in [11], 0.3 °C; in assay [12], -1 °C. The ΔTm was 0.1 °C in [13]; 0.8 °C in [14]; 0.1 °C in assay [15]; 0.1 °C in [16]; -0.3 °C in assay [17]; 0 °C in [18]. In addition, the ΔTm came out at 0.4 °C in [19] and 1.1 °C in [20].

For the compound `Cc1cc(C=C2C(=O)C=CC2=O)cc(C)c1O`, the ΔTm in assay [1] was -1.4 °C; in assay [2] it was -1 °C; in [3] it was 2.5 °C; in assay [4] it was -5.7 °C; in [5], -0.1 °C; in assay [6] it was 1.2 °C. Also, the ΔTm is 0.2 °C in [7]; 0.3 °C in [8]; -2 °C in assay [9]; 0.8 °C in assay [10]; 1 °C in assay [11]; -0.3 °C in [12]. For the same compound, the ΔTm is -0.1 °C in [13]; 0.7 °C in assay [14]; 2.3 °C in [15]; 0.7 °C in assay [16]; -2.6 °C in assay [17]; -4.1 °C in assay [18]. For the same compound, the ΔTm in assay [19] came out at 0.6 °C; in assay [20], 0.8 °C.
